What was measured:
peritoneal macrophages [1] = assay: Stimulation of the release of lysosomal enzymes from peritoneal macrophages (exocytosis); conditions: single i.p. dose of 40 mg/kg; maximum activation by Example 34 = 100%; 40 mg/kg
peritoneal macrophages [2] = assay: Activation of peritoneal macrophages: chemiluminescence (oxidative metabolism); conditions: single i.p. dose of 40 mg/kg; maximum activation by Example 34 = 100%; 40 mg/kg
active Arthus reaction = assay: Active Arthus reaction in the rat; format: in vivo, Sprague-Dawley rats; conditions: 4 h after ovalbumin challenge; for Active Arthus reaction % change / change in vivo at 50 mg/kg: oral dose 50 mg/kg
Procedure: The experimental animals used were female and male Sprague-Dawley rats with a body weight between 80 and 100 g which received subcutaneous injections into the tail-head of 0.5 ml of an emulsion of pertussis vaccine and ovalbumin in liquid paraffin. After two weeks, the rats were divided into groups each of 8 animals. 24 hours and 1 hour before induction of the Arthus reaction by injection of 0.1 ml of a 0.4% strength ovalbumin solution into the right hind paw, the particular test substance or the pure vehicle (positive control) was administered orally, sodium chloride solution was injected into the left paw. One group of unsensitized animals (negative control group) was likewise treated with ovalbumin in order to be able to rule out nonspecific reactions to the protein. The parameter used for measuring the action of the product was the percentage change in the increase in paw volume compared with that in the control group which was sensitized but untreated (positive control) 4 hours after ovalbumin challenge, when the swelling had reached its maximum.

[3] = system: DTH reaction to sheep erythrocytes; assay: Delayed-type hypersensitivity (DTH) reaction to sheep erythrocytes; format: in vivo, female NMRI mice; conditions: single i.p. dose of 40 mg/kg, maximal stimulation by Example 34 = 100%
Procedure: Groups each comprising 5 female NMRI mice with a body weight of 18 to 20 g were formed, and each animal was given 10^6 or 10^9 sheep red blood cells intravenously. Sheep erythrocytes are regarded in immunology as a standard antigen with which it is possible to check cellular and humoral immunoreactivity, especially the functioning of the T-cell-dependent component of the immune system, the so-called T-helper cells. The test substances were administered, in intraperitoneal doses of 5 to 100 mg/kg in physiological saline, at the same time as the antigen. After 5 days, each animal was given an injection of 2×10^8 sheep erythrocytes into the footpad. 24 hours later, the swelling of the foot was measured. The foot swelling is induced by a skin reaction of the delayed type (DTH reaction) and, as is known to those skilled in the art, is a measure of the cellular immune response (J. Immunol. 101 (1968), 830-845). The test results obtained with the product of Example 34, by way of example, are compiled in Table 7 and illustrate that the compounds of the formula I--administered prophylactically--are able to increase the cellular immune response after immunization with the antigen by stimulation of the T-cell system, with the stimulant action reaching its optimum in this experiment at a dose of 25 mg/kg.

leucine aminopeptidase = assay: Inhibition of leucine aminopeptidase; format: biochemical; conditions: substrate L-leucine 4-nitroanilide
Procedure: (§1) The activity of the enzyme aminopeptidase B was determined photometrically using the substrate L-lysine 2-naphthylamide at room temperature. […] In the same way, the inhibition of leucine aminopeptidase was investigated using L-leucine 4-nitroanilide as enzyme substrate. The IC50 values are compiled in Table 6.

Acute toxicity = assay: Acute toxicity; parameters: species or system mice; conditions: mouse, in vivo, single dose, mortality within 7 days
Procedure: The LD50 values were determined by the standard method via the mortality occurring within 7 days in NMRI (Naval Medical Research Institute) mice (6 animals per dose) after a single intraperitoneal (i.p.) or intravenous (i.v.) dose.

aminopeptidase B = aminopeptidase B (Homo sapiens, UniProt Q9H4A4); assay: Inhibition of aminopeptidase B; format: biochemical
Chain of aminopeptidase B (Q9H4A4 whole entry, species assumed): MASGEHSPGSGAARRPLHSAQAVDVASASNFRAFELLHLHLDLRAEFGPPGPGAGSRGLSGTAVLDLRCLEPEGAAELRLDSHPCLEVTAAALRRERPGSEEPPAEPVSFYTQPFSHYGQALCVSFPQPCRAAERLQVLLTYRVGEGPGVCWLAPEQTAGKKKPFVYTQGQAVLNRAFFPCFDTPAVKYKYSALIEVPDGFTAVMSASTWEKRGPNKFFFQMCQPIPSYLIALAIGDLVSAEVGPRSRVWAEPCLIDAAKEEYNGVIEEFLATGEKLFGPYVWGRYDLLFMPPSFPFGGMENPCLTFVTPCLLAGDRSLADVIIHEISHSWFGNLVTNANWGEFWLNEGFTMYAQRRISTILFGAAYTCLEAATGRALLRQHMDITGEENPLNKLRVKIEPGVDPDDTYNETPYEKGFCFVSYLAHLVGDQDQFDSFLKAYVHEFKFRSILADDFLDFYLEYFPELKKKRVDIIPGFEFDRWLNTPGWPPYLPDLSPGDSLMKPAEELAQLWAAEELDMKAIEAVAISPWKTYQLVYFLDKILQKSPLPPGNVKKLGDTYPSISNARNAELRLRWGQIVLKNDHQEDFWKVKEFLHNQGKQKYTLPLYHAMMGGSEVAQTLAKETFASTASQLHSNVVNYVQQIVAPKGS
Procedure: as §1

cGvH reaction = assay: Chronic graft-versus-host (cGvH) reaction in the mouse; format: in vivo, female mice of (DBA/2×C57Bl/6)F1 generation; conditions: 6 weeks
Text: Graft-versus-host disease, which derives from an immune reaction originating from the transplant and directed against the host tissue, is characterized, in the acute form which almost always has a fatal outcome, by enlargement of the spleen, swelling of the liver, hypertrophy of the lymph nodes, hemolytic anemia, lowered immunoglobulin and complement levels and diminished immunoreactivity. The chronic form of the disease, which has a somewhat milder course, leads to lymphadenopathy, immune complex glomerulonephritis and excessive formation of non-organ-specific autoantibodies. A syndrome with similar features is systemic lupus erythematosus (SLE) which is likewise one of the autoimmune diseases.
The investigation of the compounds used according to the invention for the progress of the cGvH reaction induced in female mice of (DBA/2×C57Bl/6)F1 generation by two injections of spleen and thymus cells mixed together are carried out in the experimental system described by S. Popovic and R. R. Bartlett (Agents and Actions 21 (1987), 284-286), with 5×10^7 DBA/2 cells, likewise obtained from female donor animals, being administered intravenously in 0.2 ml of culture medium each time at a time interval of 7 days. For a reliable assessment of the outbreak and course of the disease, a group of healthy animals was included as negative control in all experiments. The 6-week oral treatment of the animals with the disease started on day 21 after the first donor cell injection, with the test substances or the pure vehicle (positive control) being administered once a day. The vehicle used was an aqueous CMC (carboxymethylcellulose sodium salt) solution containing 100 mg of CMC per 1. The volume administered was 10 ml per kg body weight. The individual experimental groups each comprised 10 animals.
The action of the products was assessed on the basis of the inhibition of proteinuria and the cGvH index. As a consequence of the destruction of nephrons by deposition of immune complexes on the basement membranes of the glomeruli, the animals with the disease developed pronounced proteinuria, which correlates with the extent of glomerulonephritis and can easily be quantified via the increase in the amount of protein excreted with the urine. The second parameter measured, the cGvH index, relates to the great enlargement of the spleen (splenomegaly) caused by the cGvH reaction. It is defined as the quotient of the product of the spleen and body weights of the animals with the disease and of the product of the corresponding weights of healthy untreated animals on the negative control group, and is a reliable measure of the intensity of the disease (the greater this index, the more severe the disease).

SMILES: COP(=O)(OC)C1CC(c2ccccc2)=NO1 (single isomer, unassigned) [Example 60a, Dimethyl (+)- and (-)-3-phenyl-2-isoxazolin-5-ylphosphonate]
- Relative stimulation of macrophage activity: Exocytosis (peritoneal macrophages [1]): 88%
- Relative stimulation of macrophage activity: Chemiluminescence (peritoneal macrophages [2]): 51%

SMILES: COP(=O)(OC)C1CC(c2ccccc2)=NO1 (single isomer, unassigned) [Example 60b, Dimethyl (+)- and (-)-3-phenyl-2-isoxazolin-5-ylphosphonate]
- Relative stimulation of macrophage activity: Exocytosis (peritoneal macrophages [1]): 63%
- Relative stimulation of macrophage activity: Chemiluminescence (peritoneal macrophages [2]): 24%

SMILES: O=P(O)(O)C1CC(c2ccccc2)=NO1 (single isomer, unassigned; (+)) [Example 61, (+)-3-Phenyl-2-isoxazolin-5-ylphosphonic acid]
- Active Arthus reaction % change (active Arthus reaction): +52%
- Relative stimulation of the DTH reaction ([3]; 40 mg/kg): 108%
- Leucine aminopeptidase IC50 (leucine aminopeptidase): 26 μug/ml

SMILES: O=P(O)(O)C1CC(c2ccccc2)=NO1 (single isomer, unassigned; (-)) [Example 62, (-)-3-Phenyl-2-isoxazolin-5-ylphosphonic acid]
- Active Arthus reaction % change (active Arthus reaction): +16%
- Relative stimulation of the DTH reaction ([3]; 40 mg/kg): 83%
- Leucine aminopeptidase IC50 (leucine aminopeptidase): 130 μug/ml

SMILES: COP(C)(=O)C1CC(c2ccccc2)=NO1 (centres unmarked) [Example 13, Methyl 3-phenyl-2-isoxazolin-5-yl(P-methyl)phosphinate]
- change in vivo at 50 mg/kg (active Arthus reaction; Rattus norvegicus): -13%
- LD50 at 168 h (Acute toxicity; iv): > 200 mg/kg
- IC50 (aminopeptidase B): 418 µM

SMILES: O=P(O)(O)C1CC(c2ccccc2)=NO1 (centres unmarked) [Example 35]
- change in vivo at 35 mg/kg (active Arthus reaction; Rattus norvegicus, po, 4 h, oral dose 35 mg/kg, read-out: Active Arthus reaction % change): -16%
- Relative stimulation of the DTH reaction ([3]; 40 mg/kg): 98%
- Leucine aminopeptidase IC50 (leucine aminopeptidase): 57 μug/ml
- LD50 at 168 h (Acute toxicity; iv): > 200 mg/kg

SMILES: O=P(O)(O)C1CC(c2ccccc2)=NO1 (centres unmarked) [Example 36]
- Relative stimulation of the DTH reaction ([3]; 40 mg/kg): 102%
- Leucine aminopeptidase IC50 (leucine aminopeptidase): 56 μug/ml

SMILES: O=P(O)(O)C1CC(c2ccccc2)=NO1 (centres unmarked) [Example 37]
- Relative stimulation of the DTH reaction ([3]; 40 mg/kg): 77%
- Leucine aminopeptidase IC50 (leucine aminopeptidase): 52 μug/ml

SMILES: O=C(C1=NOC(P(=O)(O)O)C1)c1ccccc1 (centres unmarked) [Example 53]
- Relative stimulation of the DTH reaction [3]: 68%
- Leucine aminopeptidase IC50 (leucine aminopeptidase): 65 μug/ml

SMILES: COc1ccc(-c2cc(P(=O)(O)O)on2)cc1 [Example 54]
- change in vivo at 40 mg/kg (active Arthus reaction; Rattus norvegicus, po, 4 h, oral dose 40 mg/kg): -57%
- % inhibition Proteinuria (cGvH reaction; oral dose 15 mg/kg/day): 27%
- % inhibition cGvH index (cGvH reaction; oral dose 15 mg/kg/day): 16%
- % inhibition Proteinuria (cGvH reaction; oral dose 50 mg/kg/day): 64%
- % inhibition cGvH index (cGvH reaction; oral dose 50 mg/kg/day): 18%
- LD50 at 168 h (Acute toxicity; iv): > 200 mg/kg

SMILES: CP(=O)(O)C1CC(c2ccccc2)=NO1 (centres unmarked) [Example 63, 3-Phenyl-2-isoxazolin-5-yl(P-methyl)phosphinic acid]
- change in vivo at 50 mg/kg (active Arthus reaction; Rattus norvegicus, po, 4 h): -48%
- % inhibition Proteinuria (cGvH reaction; oral dose 15 mg/kg/day): 76%
- % inhibition cGvH index (cGvH reaction; oral dose 15 mg/kg/day): 54%
- % inhibition Proteinuria (cGvH reaction; oral dose 30 mg/kg/day): 61%
- % inhibition cGvH index (cGvH reaction; oral dose 30 mg/kg/day): 48%
- LD50 at 168 h (Acute toxicity; ip): 300 to 600 mg/kg

From patent US5006515A, “Pharmaceuticals, phosphorus-containing 2-isoxazolines and isoxazoles contained therein” (Hoechst Aktiengesellschaft, priority 1987, dated 1991)
